The text below walks through data of US20260191835A1, “COMBINATIONS COMPRISING A MENIN-MLL INHIBITOR AND AT LEAST ONE OTHER THERAPEUTIC AGENT” (JANSSEN PHARMACEUTICA NV, priority 2022, published 2026).

One data set has as its system MEIS1 mRNA expression. Nature of the data set: MEIS1 mRNA expression assay (Quantigene Singleplex) in MOLM14. The format is cell-based. The conditions noted are these: Homo sapiens, MOLM-14, 48 h, MOLM14 cells, 48 hours with compound. How it is done:
2b) MEIS1 mRNA Expression Assay
MEIS1 mRNA expression upon treatment of compound was examined by Quantigene Singleplex assay (Thermo Fisher Scientific). This technology allows for direct quantification of mRNA targets using probes hybridizing to defined target sequences of interest and the signal is detected using a Multimode plate reader Envision (PerkinElmer). The MOLM14 cell line was used for this experiment. Cells were plated in 96-well plates at 3,750 cells/well in the presence of increasing concentrations of compounds. After incubation of 48 hours with compounds, cells were lysed in lysis buffer and incubated for 45 minutes at 55° C. Cell lysates were mixed with human MEIS1 specific capture probe or human RPL28 (Ribosomal Protein L28) specific probe as a normalization control, as well as blocking probes. Cell lysates were then transferred to the custom assay hybridization plate (Thermo Fisher Scientific) and incubated for 18 to 22 hours at 55° C. Subsequently, plates were washed to remove unbound materials followed by sequential addition of preamplifiers, amplifiers, and label probe. Signals (=gene counts) were measured with a Multimode plate reader Envision. IC50s were calculated by dose-response modelling using appropriate software. For all non-housekeeper genes response equal counts corrected for background and relative expression. For each sample, each test gene signal (background subtracted) was divided by the normalization gene signal (RPL28: background subtracted). Fold changes were calculated by dividing the normalized values for the treated samples by the normalized values for the DMSO treated sample. Fold changes of each target gene were used for the calculation of IC50s.

A further data set concerns MOLM14 cells. Nature of the data set: Proliferation assay (spheroid assay), MOLM14. The format is cell-based. To be noted: Homo sapiens, MOLM-14, 192 h, 8 days; read-out: spheroid assay_MOLM14 IC50. How it is done: The anti-proliferative effect of menin/MLL protein/protein interaction inhibitor test compounds was assessed in human leukemia cell lines. The cell line MOLM14 harbors a MLL translocation and expresses the MLL fusion protein MLL-AF9, respectively, as well as the wildtype protein from the second allele. OCI-AML3 cells that carry the NPM1c gene mutation were also tested. […] KO-52 was used as a control cell line containing two MLL (KMT2A) wildtype alleles in order to exclude compounds that display general cytotoxic effects.
MOLM14 cells were cultured in RPMI-1640 (Sigma Aldrich) supplemented with 10% heat-inactivated fetal bovine serum (HyClone), 2 mM L-glutamine (Sigma Aldrich) and 50 μg/ml gentamycin (Gibco). KO-52 and OCI-AML3 cell lines were propagated in alpha-MEM (Sigma Aldrich) supplemented with 20% heat-inactivated fetal bovine serum (HyClone), 2 mM L-glutamine (Sigma Aldrich) and 50 µg/ml gentamycin (Gibco).
In order to assess the anti-proliferative effects, 200 MOLM14 cells, […] or 300 KO-52 cells were seeded in 200 μl media per well in 96-well round bottom, ultra-low attachment plates (Costar, catalogue number 7007). Cell seeding numbers were chosen based on growth curves to ensure linear growth throughout the experiment. Test compounds were added at different concentrations and the DMSO content was normalized to 0.3%. Cells were incubated for 8 days at 37° C. and 5% CO2. Spheroid like growth was measured in real-time by live-cell imaging (IncuCyteZOOM, Essenbio, 4× objective) acquiring images at day 8. Confluence (%) as a measure of spheroid size was determined using an integrated analysis tool.
In order to determine the effect of the test compounds over time, the confluence in each well as a measure of spheroid size, was calculated. Confluence of the highest dose of a reference compound was used as baseline for the LC (Low control) and the confluence of DMSO treated cells was used as 0% cytotoxicity (High Control, HC).
Absolute IC50 values were calculated as percent change in confluence as follows: • LC=Low Control: cells treated with e.g. […] of the cytotoxic agent staurosporin, or e.g. cells treated with a high concentration of an alternative reference compound • HC=High Control: Mean confluence (%) (DMSO treated cells)
GraphPad Prism (version 7.00) was used to calculate the IC50. Dose-response equation was used for the plot of % Effect vs Log 10 compound concentration with a variable slope and fixing the maximum to 100% and the minimum to 0%.

The target in data set [1] is T1, Menin/MLL (terbium chelate-labeled menin, FITC-MBM1 peptide) (Homo sapiens, UniProt O00255, T541A).
T1 construct: Menin (a.a 1-610-6×his tag)
T1 sequence (O00255 with tags, fused parts or gaps T541A): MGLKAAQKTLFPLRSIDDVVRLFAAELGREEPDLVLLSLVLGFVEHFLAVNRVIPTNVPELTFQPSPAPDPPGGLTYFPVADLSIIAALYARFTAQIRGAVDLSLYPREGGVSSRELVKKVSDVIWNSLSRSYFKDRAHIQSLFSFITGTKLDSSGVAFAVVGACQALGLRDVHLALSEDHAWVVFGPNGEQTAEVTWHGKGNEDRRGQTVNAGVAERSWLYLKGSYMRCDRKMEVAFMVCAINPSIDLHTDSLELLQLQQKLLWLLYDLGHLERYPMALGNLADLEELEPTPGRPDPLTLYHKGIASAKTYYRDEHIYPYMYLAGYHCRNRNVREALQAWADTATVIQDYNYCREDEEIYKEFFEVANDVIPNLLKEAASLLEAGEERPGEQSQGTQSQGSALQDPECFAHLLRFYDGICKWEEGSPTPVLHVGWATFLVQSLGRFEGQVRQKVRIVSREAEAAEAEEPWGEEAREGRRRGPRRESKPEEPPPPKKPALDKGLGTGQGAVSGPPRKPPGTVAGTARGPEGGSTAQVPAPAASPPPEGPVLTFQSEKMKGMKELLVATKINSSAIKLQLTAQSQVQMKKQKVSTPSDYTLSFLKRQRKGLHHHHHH
Nature of the data set: Menin/MLL homogenous time-resolved fluorescence (HTRF) assay. To be noted: 30 min incubation of test compound with terbium chelate-labeled menin. The format is binding. As to the method:
1) Menin/MLL Homogenous Time-Resolved Fluorescence (HTRF) Assay
To an untreated, white 384-well microtiter plate was added 40 nL 200× test compound in DMSO and 4 μL 2× terbium chelate-labeled menin (vide infra for preparation) in assay buffer (40 mM Tris·HCl, pH 7.5, 50 mM NaCl, 1 mM DTT (dithiothreitol) and 0.05% Pluronic F-127). After incubation of test compound and terbium chelate-labeled menin for 30 min at ambient temperature, 4 μL 2×FITC-MBM1 peptide (FITC-O-alanine-[…]-NH2) (“FITC” means fluorescein isothiocyanate) in assay buffer was added, the microtiter plate centrifuged at 1000 rpm for 1 min and the assay mixtures incubated for 15 min at ambient temperature. The relative amount of menin-FITC-MBM1 complex present in an assay mixture is determined by measuring the homogenous time-resolved fluorescence (HTRF) of the terbium/FITC donor/acceptor fluorphore pair using an EnVision microplate reader (ex. 337 nm/terbium em. 490 nm/FITC em. 520 nm) at ambient temperature. The degree of fluorescence resonance energy transfer (the HTRF value) is expressed as the ratio of the fluorescence emission intensities of the FITC and terbium fluorophores (F^em 520 nm/F^em 490 nm). […]
Compound potencies were determined by first calculating % inhibition at each compound concentration according to equation 1: […]

Data set [2] is described as follows: Dynamic vapor sorption (DVS) moisture sorption analysis. The format is physicochemical. As to the method:
Dynamic Vapor Sorption (DVS) The moisture sorption analysis (DVS) was performed using a ProUmid GmbH & Co. KG Vsorp Enhanced dynamic vapor sorption apparatus. The moisture profile was evaluated by monitoring vapor adsorption/desorption over the range of 0 to 90% relative humidity at 25° C. The sample weight equilibrium criteria were set at 0.01% change in 45 min with minimum and maximum time of acclimation at 50 min and 120 min, respectively. The moisture profile consisted of 2 cycles of vapor adsorption/desorption.

Setting [3] is: common ambient RH of 40% to 75%.

In general, IC50 refers to the concentration at which inhibition is half-maximal.

SMILES strings stand for the structures.

Regarding `CNC(=O)N1CCC(CN2CC[C@H](Cc3cn(-c4ccc(F)cc4C(=O)N(C)C(C)C)c4cncc(C)c34)C2)CC1` (single isomer, unassigned) [Compound 101], the IC50 in the data set on MEIS1 mRNA expression came out at 7 nM; with MOLM14 cells, 41 nM.

Turning to `COCC(=O)N1CCC(C(C)N2CCC(Cc3cn(-c4ccc(F)cc4C(=O)N(C)C(C)C)c4cncc(C)c34)C2)CC1` (single isomer, unassigned) [Compound 117a], the IC50 with MEIS1 mRNA expression is 7 nM; with MOLM14 cells, 5 nM.

In the case of `CC(=O)N1CC[C@@H](N2CC(Cc3cn(-c4ccc(F)cc4C(=O)N(C)C(C)C)c4cncc(C)c34)C2)C[C@H]1C` (single isomer, unassigned) [Compound 292a], the IC50 in data set [1] was 0.132 nM.

For `CC(=O)N1C[C@H]2CC(N3CC(Cc4cn(-c5ccc(F)cc5C(=O)N(C)C(C)C)c5cncc(C)c45)C3)C[C@H]2C1` (single isomer, unassigned) [Compound 294a], the IC50 in the data set on MEIS1 mRNA expression was 365 nM; in data set [1], 0.237 nM.

Turning to `CC(=O)N1CCC(CN2CC[C@@H](Cc3cn(-c4ccc(F)cc4C(=O)N(C)C(C)C)c4cncc(C)c34)C2)CC1.Cl` [Compound 51a], the “solid-state form stability after the DVS test (XRPD)” value in data set [2] (2 cycles of vapor adsorption/desorption) is “No indication of a solid-state form change was observed”. Also, in data set [2] (setting [3]), the “total moisture mass at equilibrium” value is 8.5-9.5% and the “water content at equilibrium” value is on record as “around 3 equivalents of water”. Further, the “hygroscopicity (DVS change in mass)” value in data set [2] (crystalline HCl salt Form, 0 to 90% relative humidity at 25° C.) is “hygroscopic”. In addition, in data set [2] (humidity range of 20-90% RH, 25° C., slowly and reversibly), the “moisture adsorbed and desorbed, by mass on average” value is listed as “up to 2.5%”.

On to `CC(=O)N1CCC(N2CC[C@H](Cc3cn(-c4ccc(F)cc4C(=O)N(C)C(C)C)c4cncc(C)c34)C2)CC1` [Compound 156], for which the IC50 worked out at 187 nM in the data set with MEIS1 mRNA expression and 42 nM in the data set on MOLM14 cells.

`Cc1cncc2c1c(CC1CN(CC3CCNC(=O)C3)C1)cn2-c1ccc(F)cc1C(=O)N(C)C(C)C` (stereo not shown) [Compound 196]: the IC50 with MEIS1 mRNA expression is 438 nM.

`CC(=O)N1CC2CC(N3CC(Cc4cn(-c5ccc(F)cc5C(=O)N(C)C(C)C)c5cncc(C)c45)C3)CC2C1` (stereo not shown) [Compound 294b]: in the data set on MEIS1 mRNA expression, the concentration for half-maximal inhibition (IC50) is 153 nM.
